Activity calls are given as the source filed them. The calls are words filed in the database; no cut-off is given here.
What was measured:
[1] = Chemical stability of the compound in at pH 7.4 measured at 6 hrs by HPLC based non-enzymatic stability assay; assay type: physicochemical; conditions: buffer, read-out: Stability
[2] = Chemical stability of the compound in at pH 7.4 measured at 12 hrs by HPLC based non-enzymatic stability assay; assay type: physicochemical; conditions: buffer, read-out: Stability
[3] = Chemical stability of the compound in at pH 7.4 measured at 24 hrs by HPLC based non-enzymatic stability assay; assay type: physicochemical; conditions: buffer, read-out: Stability
[4] = Chemical stability of the compound in at pH 7.4 measured at 48 hrs by HPLC based non-enzymatic stability assay; assay type: physicochemical; conditions: buffer, read-out: Stability
[5] = Chemical stability of the compound in at pH 7.4 measured at 72 hrs by HPLC based non-enzymatic stability assay; assay type: physicochemical; conditions: buffer, read-out: Stability
[6] = molecular target: Protein cereblon/Serine/threonine-protein kinase ATR (Homo sapiens) (UniProt Q13535+Q96SW2); assay: PROTAC activity at ATR/CRBN in patient derived human MIA PaCa-2 cells assessed as reduction in protein level at 2 uM measured after 24 hrs by immunoblot analysis relative to untreated control; assay type: cell-based; design: scale not given: the % may be the effect or the level left
Protein cereblon/Serine/threonine-protein kinase ATR (Homo sapiens), sequence (Q13535 whole entry, looked up): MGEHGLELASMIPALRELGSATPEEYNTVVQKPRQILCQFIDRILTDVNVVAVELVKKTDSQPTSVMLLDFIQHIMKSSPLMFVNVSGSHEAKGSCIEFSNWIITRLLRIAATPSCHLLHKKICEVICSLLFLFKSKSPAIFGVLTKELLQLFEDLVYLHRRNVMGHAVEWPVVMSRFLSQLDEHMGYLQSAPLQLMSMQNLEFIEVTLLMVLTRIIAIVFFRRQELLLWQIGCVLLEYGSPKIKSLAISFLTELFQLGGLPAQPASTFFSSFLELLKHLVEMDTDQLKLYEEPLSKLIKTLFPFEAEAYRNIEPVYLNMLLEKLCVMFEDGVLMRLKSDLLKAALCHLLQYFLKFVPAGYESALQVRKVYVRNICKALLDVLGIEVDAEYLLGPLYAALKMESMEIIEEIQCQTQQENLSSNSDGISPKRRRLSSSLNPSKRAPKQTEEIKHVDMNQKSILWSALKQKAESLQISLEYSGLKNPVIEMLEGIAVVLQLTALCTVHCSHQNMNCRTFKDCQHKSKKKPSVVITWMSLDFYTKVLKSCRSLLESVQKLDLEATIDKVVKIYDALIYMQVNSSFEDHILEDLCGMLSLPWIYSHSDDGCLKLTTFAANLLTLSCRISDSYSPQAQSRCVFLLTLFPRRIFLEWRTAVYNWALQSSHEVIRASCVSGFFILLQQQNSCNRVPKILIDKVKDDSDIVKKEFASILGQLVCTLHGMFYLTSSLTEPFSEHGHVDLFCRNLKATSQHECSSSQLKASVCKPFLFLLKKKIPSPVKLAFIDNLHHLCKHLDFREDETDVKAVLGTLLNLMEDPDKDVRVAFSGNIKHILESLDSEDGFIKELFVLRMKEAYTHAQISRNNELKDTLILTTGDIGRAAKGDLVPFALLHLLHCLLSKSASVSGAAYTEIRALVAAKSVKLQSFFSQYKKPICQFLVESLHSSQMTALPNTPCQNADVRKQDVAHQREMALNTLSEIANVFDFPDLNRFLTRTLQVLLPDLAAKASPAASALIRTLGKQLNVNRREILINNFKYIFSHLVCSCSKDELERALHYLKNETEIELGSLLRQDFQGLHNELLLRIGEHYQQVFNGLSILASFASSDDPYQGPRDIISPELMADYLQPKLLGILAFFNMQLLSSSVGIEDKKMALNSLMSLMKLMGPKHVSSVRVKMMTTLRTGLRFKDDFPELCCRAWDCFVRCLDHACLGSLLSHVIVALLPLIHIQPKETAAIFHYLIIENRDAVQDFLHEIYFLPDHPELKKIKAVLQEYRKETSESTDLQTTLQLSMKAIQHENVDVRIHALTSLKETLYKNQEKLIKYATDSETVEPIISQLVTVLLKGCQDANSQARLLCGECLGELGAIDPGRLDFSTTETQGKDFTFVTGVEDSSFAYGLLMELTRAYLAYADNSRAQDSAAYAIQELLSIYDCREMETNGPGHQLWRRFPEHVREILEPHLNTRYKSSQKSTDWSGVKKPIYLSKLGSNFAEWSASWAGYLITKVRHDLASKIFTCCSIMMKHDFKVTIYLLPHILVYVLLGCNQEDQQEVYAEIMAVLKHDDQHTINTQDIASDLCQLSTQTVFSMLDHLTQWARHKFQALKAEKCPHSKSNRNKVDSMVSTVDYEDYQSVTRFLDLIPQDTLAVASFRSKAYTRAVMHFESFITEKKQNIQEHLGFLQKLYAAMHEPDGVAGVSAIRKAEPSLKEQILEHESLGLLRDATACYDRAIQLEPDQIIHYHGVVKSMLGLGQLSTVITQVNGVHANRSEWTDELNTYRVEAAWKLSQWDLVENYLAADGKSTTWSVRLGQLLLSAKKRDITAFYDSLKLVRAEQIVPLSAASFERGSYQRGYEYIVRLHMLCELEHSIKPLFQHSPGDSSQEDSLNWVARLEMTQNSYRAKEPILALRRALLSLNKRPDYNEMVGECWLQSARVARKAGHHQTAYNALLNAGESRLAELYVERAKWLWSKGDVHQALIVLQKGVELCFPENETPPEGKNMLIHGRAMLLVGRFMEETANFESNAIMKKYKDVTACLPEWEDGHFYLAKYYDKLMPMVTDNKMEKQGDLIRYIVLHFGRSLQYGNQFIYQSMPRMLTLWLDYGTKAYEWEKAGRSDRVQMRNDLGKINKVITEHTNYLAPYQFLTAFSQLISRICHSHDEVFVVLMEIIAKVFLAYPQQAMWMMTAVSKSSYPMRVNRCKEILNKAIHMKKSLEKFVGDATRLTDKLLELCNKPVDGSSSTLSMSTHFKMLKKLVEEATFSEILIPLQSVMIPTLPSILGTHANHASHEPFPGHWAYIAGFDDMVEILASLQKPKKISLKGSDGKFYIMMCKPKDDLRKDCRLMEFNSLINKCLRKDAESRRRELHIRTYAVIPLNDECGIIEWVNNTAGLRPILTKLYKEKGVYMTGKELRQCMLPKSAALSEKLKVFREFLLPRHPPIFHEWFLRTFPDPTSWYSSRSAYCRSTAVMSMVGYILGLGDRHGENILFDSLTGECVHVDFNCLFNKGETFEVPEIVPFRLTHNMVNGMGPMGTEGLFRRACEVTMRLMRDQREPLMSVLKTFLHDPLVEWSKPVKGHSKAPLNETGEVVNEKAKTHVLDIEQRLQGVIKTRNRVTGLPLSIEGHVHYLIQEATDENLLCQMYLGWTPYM
Protein cereblon/Serine/threonine-protein kinase ATR (Homo sapiens), sequence (Q96SW2 whole entry, looked up): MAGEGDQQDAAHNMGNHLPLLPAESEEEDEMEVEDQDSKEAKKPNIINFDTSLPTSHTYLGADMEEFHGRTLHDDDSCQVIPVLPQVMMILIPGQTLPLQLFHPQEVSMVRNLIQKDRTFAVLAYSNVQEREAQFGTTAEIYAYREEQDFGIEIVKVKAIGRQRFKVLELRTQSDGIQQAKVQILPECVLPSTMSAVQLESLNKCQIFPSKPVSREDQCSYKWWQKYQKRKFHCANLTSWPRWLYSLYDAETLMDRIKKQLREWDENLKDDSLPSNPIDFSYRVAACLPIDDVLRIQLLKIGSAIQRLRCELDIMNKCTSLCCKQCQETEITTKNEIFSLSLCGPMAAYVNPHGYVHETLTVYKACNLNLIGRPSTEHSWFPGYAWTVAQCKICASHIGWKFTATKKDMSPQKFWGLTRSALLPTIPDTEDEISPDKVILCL

[7] = test system: HEK293; assay: Cytotoxicity against human HEK293 cells assessed as cell viability at 50 uM incubated for 24 hrs by Alamar Blue reagent based assay relative to control; assay type: functional; conditions: read-out: Activity

Row | SMILES | remaining at 6 h [1] [%] | remaining at 12 h [2] [%] | remaining at 24 h [3] [%] | remaining at 48 h [4] [%] | remaining at 72 h [5] [%] | Activity [6] | viability at 50 µM [7] [%]
1 | Nc1ncc(-c2ccc(S(=O)(=O)NCCCCCC(=O)NCC#Cc3cccc4c3CN(C3CCC(=O)NC3=O)C4=O)cc2)nc1-c1nnc(-c2ccccc2)o1 (stereo not drawn) | 108 | 105 | 105 | 106 | 106 | 40% | 70.5
2 | Nc1ncc(-c2ccc(S(=O)(=O)NCCCCCC(=O)NCC#Cc3cccc4c3CN(C3CCC(=O)NC3=O)C4=O)cc2)nc1C(=O)Nc1ccccc1 (stereo not drawn) | 101 | 103 | 104 | 105 | 109 | Active | 86.4
3 | Nc1ncc(-c2ccc(S(=O)(=O)NCCCCCCC(=O)N3CCN(c4ccc5c(c4)C(=O)N(C4CCC(=O)NC4=O)C5=O)CC3)cc2)nc1C(=O)Nc1ccccc1 (stereo not drawn) | 97 | 92 | 88 | 78 | 70 |  | 93.2
4 | CNCc1ccc(-c2nnc(-c3nc(-c4ccc(S(=O)(=O)NCCCCC(=O)NCCCC#Cc5cccc6c5CN(C5CCC(=O)NC5=O)C6=O)cc4)cnc3N)o2)cc1 (stereo not drawn) | 101 | 101 | 102 | 100 | 100 | 40% | 107
5 | Nc1ncc(-c2ccc(S(=O)(=O)NCCCCC(=O)N3CCN(c4ccc5c(c4)C(=O)N(C4CCC(=O)NC4=O)C5=O)CC3)cc2)nc1C(=O)Nc1ccccc1 (stereo not drawn) | 97 | 94 | 90 | 82 | 74 | inactive | 102
6 | Nc1ncc(-c2ccc(S(=O)(=O)NCCCCC(=O)NCCCC#Cc3cccc4c3CN(C3CCC(=O)NC3=O)C4=O)cc2)nc1C(=O)Nc1ccccc1 (stereo not drawn) | 102 | 102 | 102 | 103 | 103 |  | 104
7 | CN1C(=O)CCC(N2Cc3c(C#CCCCNC(=O)CCCCCNS(=O)(=O)c4ccc(-c5cnc(N)c(C(=O)Nc6ccccc6)n5)cc4)cccc3C2=O)C1=O (stereo not drawn) | 100 | 100 | 99 | 98 | 97 | inactive | 83.5
8 | Nc1ncc(-c2ccc(S(=O)(=O)NCCOCCOCCC(=O)N3CCN(c4ccc5c(c4)C(=O)N(C4CCC(=O)NC4=O)C5=O)CC3)cc2)nc1C(=O)Nc1ccccc1 (stereo not drawn) | 100 | 95 | 80 | 21 | 6 | inactive | 79.9
9 | CNCc1ccc(-c2nnc(-c3nc(-c4ccc(S(=O)(=O)NCCCCCC(=O)N[C@H](C(=O)N5C[C@H](O)C[C@H]5C(=O)NCc5ccc(-c6scnc6C)cc5)C(C)(C)C)cc4)cnc3N)o2)cc1 | 101 | 100 | 101 | 99 | 99 |  | 81.8
10 | CNCc1ccc(-c2nnc(-c3nc(-c4ccc(S(=O)(=O)NCCCCCC(=O)NCCCC#Cc5cccc6c5CN(C5CCC(=O)NC5=O)C6=O)cc4)cnc3N)o2)cc1 (stereo not drawn) | 104 | 103 | 103 | 103 | 102 | inactive | 101
11 | Nc1ncc(-c2ccc(S(=O)(=O)NCCCCCCCC(=O)NCC#Cc3cccc4c3CN(C3CCC(=O)NC3=O)C4=O)cc2)nc1C(=O)Nc1ccccc1 (stereo not drawn) | 100 | 100 | 98 | 77 | 47 |  | 94.2
12 | CNCc1ccc(-c2nnc(-c3nc(-c4ccc(S(=O)(=O)NCCCCCC(=O)NCC#Cc5cccc6c5CN(C5CCC(=O)NC5=O)C6=O)cc4)cnc3N)o2)cc1 (stereo not drawn) | 101 | 101 | 101 | 100 | 100 | > 20% | 102
13 | CNCc1ccc(-c2nnc(-c3nc(-c4ccc(S(=O)(=O)NCCCCCCC(=O)NCC#Cc5cccc6c5CN(C5CCC(=O)NC5=O)C6=O)cc4)cnc3N)o2)cc1 (stereo not drawn) | 101 | 101 | 101 | 100 | 101 | > 20% | 89.5
14 | CNCc1ccc(-c2nnc(-c3nc(-c4ccc(S(=O)(=O)NCCCCC(=O)N5CCN(c6ccc7c(c6)C(=O)N(C6CCC(=O)NC6=O)C7=O)CC5)cc4)cnc3N)o2)cc1 (stereo not drawn) | 97 | 99 | 91 | 83 | 74 |  | 104
15 | Nc1ncc(-c2ccc(S(=O)(=O)NCCOCCOCCOCCC(=O)N3CCN(c4ccc5c(c4)C(=O)N(C4CCC(=O)NC4=O)C5=O)CC3)cc2)nc1C(=O)Nc1ccccc1 (stereo not drawn) | 101 | 100 | 97 | 83 | 74 | inactive | 75
16 | CNCc1ccc(-c2nnc(-c3nc(-c4ccc(S(=O)(=O)NCCCCCCC(=O)NCCCC#Cc5cccc6c5CN(C5CCC(=O)NC5=O)C6=O)cc4)cnc3N)o2)cc1 (stereo not drawn) | 101 | 101 | 101 | 95 | 93 | > 20% | 91.8
17 | Nc1ncc(-c2ccc(S(=O)(=O)NCCCCC(=O)N3CCN(c4ccc5c(c4)C(=O)N(C4CCC(=O)NC4=O)C5=O)CC3)cc2)nc1-c1nnc(-c2ccccc2)o1 (stereo not drawn) | 99 | 95 | 91 | 85 | 77 |  | 97.6
18 | Cc1ncsc1-c1ccc(CNC(=O)[C@@H]2C[C@@H](O)CN2C(=O)[C@@H](NC(=O)CCCCNS(=O)(=O)c2ccc(-c3cnc(N)c(-c4nnc(-c5ccccc5)o4)n3)cc2)C(C)(C)C)cc1 | 100 | 100 | 102 | 103 | 104 |  | 91.1
19 | Nc1ncc(-c2ccc(S(=O)(=O)NCCCCC(=O)NCC#Cc3cccc4c3CN(C3CCC(=O)NC3=O)C4=O)cc2)nc1-c1nnc(-c2ccccc2)o1 (stereo not drawn) | 104 | 105 | 105 | 103 | 107 | inactive | 95.5
20 | Cc1ncsc1-c1ccc(CNC(=O)[C@@H]2C[C@@H](O)CN2C(=O)[C@@H](NC(=O)CCCCCNS(=O)(=O)c2ccc(-c3cnc(N)c(-c4nnc(-c5ccccc5)o4)n3)cc2)C(C)(C)C)cc1 | 100 | 100 | 102 | 103 | 104 |  | 79.8
21 | CNCc1ccc(-c2nnc(-c3nc(-c4ccc(S(=O)(=O)NCCCCCCC(=O)N5CCN(c6ccc7c(c6)C(=O)N(C6CCC(=O)NC6=O)C7=O)CC5)cc4)cnc3N)o2)cc1 (stereo not drawn) | 97 | 95 | 91 | 79 | 72 |  | 95.7
